# Experimental data taken from patent US9127045B2, “Method of inhibiting bacterial growth and biofilm formation with natural quorum sensing peptides” (UNIVERSITY OF SOUTHERN CALIFORNIA, priority 2005, dated 2015).
# Ends that are not written are not given here.
# Columns and labels:
# gtfB gene of S. mutans = experiment: Transcriptional fusion assay (gtfB promoter-luciferase); format: cell-based
# From the text: The fusion constructs and the transcription assay were previously described (Goodman, S. D. and Gao, Q., Plasmid 43:85-98 (2000)). Briefly, the constructs comprised the upstream regions of the gtfB and gtfC genes fused to the promoterless coding sequence of the firefly luciferase gene and inserted into the plasmid vector pVA838, a shuttle plasmid capable of propagating in both E. coli and S. mutans marked with erythromycin resistance. The plasmids were introduced into S. mutans GS5 by electroporation and the resulting erythromycin resistant strains were grown in liquid cultures and collected at various optical densities. The reporter gene (luciferase) expression was detected by measuring luminescence upon the addition of luciferin (the substrate for luciferase), see Goodman, S. D. and Gao Q. Plasmid 42:154-157 (1999), incorporated herein by reference.
# (§1) Synthetic CSP was dissolved in water to the concentration of 1 mg/mL as described in Li, Y-H et al., J. of Bact., 183:897-908 (2001). […]
# The transcriptional fusion assay was performed to determine whether CSP inhibits the expression of the gtfB gene of S. mutans. […] When the expression peaked at the end of the lag phase prior to the exponential growth, the cells were challenged with increasing concentrations of CSP for an incubation period of 10 minutes and assessed for luminescence, the measure of reporter gene expression. […]
# [1] = tested on: GTFB expression in the wild-type S. mutans; experiment: Western blot of GTFB expression after addition of CSP to cultures; format: cell-based; details: CSP added to fresh cultures at time of dilution, 1 to 8 mcg/mL; FIG. 7 panel 1
# Experimental: (§2) For the Western blotting, the bacteria were incubated to the desired optical density, subjected to the freeze-thaw cycle and mixed with the sample loading buffer. The samples were heated at 100° C. for 15 minutes and subjected to the PAGE. The number of cells per lane of the gel was kept constant at 10^8 cells. The western blotting was performed in accordance with a standard procedure (Sambrook, J. and Russel D. W. Molecular Cloning, a laboratory manual, 3rd ed. Cold Spring Harbor Laboratory Press, NY, 2001). Briefly, after PAGE the samples were transferred onto the nitrocellulose membrane and the latter subjected to the standard ELISA procedure. The anti-GTFB mouse monoclonal antibody was previously characterized (Fukushima, K., Okada, T., Ochiai, K., Infection and Immunity 61:323-328 (1993), incorporated herein by reference). The secondary antibody (HRP-linked goat anti-mouse) and the detection reagents were purchased from Cell Signaling Technology (Beverly, Mass.).
# as §1
# (§3) A Western blot analysis was performed to determine the effect of CSP on the level of GTFB expression. […] As a control, the same blot was analyzed with antibody specific to FTF, where it was observed that CSP has no effect on FTF expression (FIG. 7, panel 2).
# S. mutans = experiment: In vitro attachment assay to a smooth surface (Petri dish) with sucrose; format: cell-based; details: CSP at 8 µg/mL for 10 minutes prior to one hour incubation on Petri dishes with sucrose; without CSP up to 51%; FIG. 9
# Experimental: The bacteria were grown in liquid cultures to the desired optical density. 20 ml of the cultures were then transferred into Petri dishes and sucrose added to the final concentration of 2%. The incubation was resumed for one hour, after which the liquid fraction was withdrawn and the fresh medium was added into which the layer of attached cells was scraped. The percentage of the attached bacteria was determined as the ratio of the optical densities of the attached to the total (a sum of attached and unattached) bacteria.
# Synthetic CSP was dissolved in water to the concentration of 1 mg/mL as described in Li, Y-H et al., J. of Bact., 183:897-908 (2001). The cultures were grown in Todd Hewitt Broth (THB) supplemented with 5% horse serum. CSP was added to the cultures at the time of diluting the overnight culture (time zero of the culture growth) to a designated concentration between 1 and 8 mcg/mL. The incubation then continued up to the optical density where the expression of GTF is maximal (OD 650=0.1). The cultures where then collected and used in Western blotting with anti-glucosyltransferase (gtf) antibody. […]
# An in vitro assay was performed to determine whether CSP can inhibit the attachment of S. mutans to a smooth surface. When sucrose was added to the medium, the wild-type S. mutans readily attached to the surface of a Petri dish. […]
# [2] = tested on: S. mutans wild-type strains UA140 and UA159; experiment: Growth inhibition of S. mutans culture by CSP pulse (96-well plate, cell density); format: cell-based
# Experimental: Previously, it was assumed that quorum sensing may be an on/off type of switching event wherein when the quorum sensing molecule reaches a certain threshold, a new behavior is […] and vice versa. The inventors have unexpectedly discovered that the QS regulated gene expression is not an all-or-nothing type of system, but actually has a dose-dependent response. […] At a 100-fold higher concentration (400 μM), CSP inhibits the growth of a S. mutans culture by 50%.
# The experiment was performed in a 96-well plate with triplicate wells for each treatment. Cell density was measured by using a plate reader (BioRad). The experiment was repeated three times. Numbers represent the average of the triplicate samples from one representative experiment. Variations between experiments were within 20%.
# These experiments were designed to mimic the conditions of the dental hygiene regimen. Specifically, the bacteria were “pulsed” with CSP. The peptide was added for a mere 10 minutes, washed away and the incubation continued in the fresh medium. In this set-up the inhibitory effect persisted for a long time and became undetectable only after 16 hours of the culture growth. Competition experiments have also shown that a mere 3-hour advantage is sufficient to ensure that a resident species in a biofilm will out compete the newcomer.
# FTF expression = experiment: Western blot of FTF expression (control) after addition of CSP; format: cell-based, S. mutans; details: same blot, antibody specific to FTF; FIG. 7 panel 2
# Experimental: as §2, §1, §3
sequence,measurement,setting,value
SGSLSTFFRLFNRSFTQALGK [CSP],inhibition of the gtf genes,gtfB gene of S. mutans; CSP 8 μg/ml (4 μM),desired inhibition of the gtf genes
same,gtfB reporter gene expression (luminescence),"gtfB gene of S. mutans; increasing concentrations of CSP, 10 minutes incubation at peak expression, FIG. 8",increasing concentrations of CSP increased the magnitude of repression
same,peak expression of GTFB (Western blot),[1],lowered proportionally to the amount of peptide added
same,bacterial cells localized to the attached layer,S. mutans,less than 8%
same,inhibition of growth of S. mutans culture,"[2]; CSP 400 μM, 10 minute pulse, FIG. 12",50%
same,effect on cell division and viability,"[2]; CSP 1.6 mM, 10 minute pulse, FIG. 12",cell division stops and cells begin to die
same,time of culture growth after which the inhibitory effect became undetectable,"[2]; CSP added for 10 minutes, washed away, incubation in fresh medium",16 h
same,FTF expression (Western blot),FTF expression,no effect
